Assay results: the NIST ThermoML archive (doi:10.1021/je050333h)

Columns and labels:
[1] = 101 kPa, Liquid; for speed of sound: Sing-around technique in a fixed-path interferometer
[2] = cn = amount concentration of the nth substance listed, in mol/dm3; settings: 101 kPa, Liquid, c2 = 0; for speed of sound: Sing-around technique in a fixed-path interferometer

CC(C)CC(C)(C)C [2,2,4-trimethylpentane]
[1]
Settings	kinematic viscosity [m2/s]	mass density [kg/m3]	speed of sound [m/s]
293.15 K	7.33e-07	690.6	1103.2
298.15 K	6.97e-07	686.3	1082.2
303.15 K	6.63e-07	680.84	1061.3
313.15 K	6.02e-07	673.37	1020.1
323.15 K	5.49e-07	664.65	979.5

CC(C)CC(C)(C)C [2,2,4-trimethylpentane] + CCCCC(CC)COC(=O)CC(C(=O)OCC(CC)CCCC)S(=O)(=O)[O-].[Na+]
[2]
Settings	kinematic viscosity [m2/s]	mass density [kg/m3]	speed of sound [m/s]
293.15 K	7.33e-07	690.6	1103.2
298.15 K	6.97e-07	686.3	1082.2
303.15 K	6.63e-07	680.84	1061.3
313.15 K	6.02e-07	673.37	1020.1
323.15 K	5.49e-07	664.65	979.5
